Calls of active or inactive are those of the source. No cut-off for these calls is given here.
Legend:
[1] = tested on: HeLa; assay: Antiproliferative activity against human HeLa cells assessed as reduction in cell viability by MTS assay; format: functional, cell-based
[2] = tested on: T-24; assay: Antiproliferative activity against human T24 cells assessed as reduction in cell viability by MTS assay; format: functional, cell-based
[3] = tested on: A549; assay: Antiproliferative activity against human A549 cells assessed as reduction in cell viability by MTS assay; format: functional, cell-based
[4] = tested on: HCT-116; assay: Antiproliferative activity against human HCT116 cells assessed as reduction in cell viability by MTS assay; format: functional, cell-based
[5] = tested on: MCF7; assay: Antiproliferative activity against human MCF7 cells assessed as reduction in cell viability by MTS assay; format: functional, cell-based
[6] = tested on: HepG2; assay: Induction of autophagy in human HepG2 cells assessed as increase in LC3 puncta staining at 0.5 uM after 4 hrs by immunostaining based fluorescence microscopic analysis; format: functional, cell-based
[7] = tested on: HepG2; assay: Induction of endoplasmic reticulum stress in human HepG2 cells assessed as increase in […] expression at 0.5 uM after 4 hrs by anti-ATF6 antibody staining based fluorescence microscopic method; format: functional, cell-based
[8] = tested on: HepG2; assay: Induction of autophagy in human HepG2 cells assessed as ratio of LC3-2 to total Erk1/2 protein level at 0.5 uM after 4 hrs by Western blot analysis (reference value: 1); format: functional
[9] = tested on: HepG2; assay: Induction of autophagy in human HepG2 cells assessed as accumulation of LC3-2 protein level at 0.5 uM after 4 hrs in presence of CQ by Western blot analysis analysis relative to CQ; format: functional
[10] = tested on: HepG2; assay: Induction of autophagy in human HepG2 cells assessed as ratio of LC3-2 to total Erk1/2 protein level at 0.5 uM after 12 hrs by Western blot analysis (reference value: 1); format: functional
[11] = tested on: HepG2; assay: Induction of autophagy in human HepG2 cells assessed as ratio of LC3-2 to total Erk1/2 protein level at 0.5 uM after 12 hrs in presence of CQ by Western blot analysis (reference value: 3.9); format: functional
[12] = tested on: HepG2; assay: Induction of autophagy in human HepG2 cells assessed as accumulation of LC3-2 protein level at 0.5 uM after 12 hrs in presence of CQ by Western blot analysis relative to CQ; format: functional
[13] = target: Serine/threonine-protein kinase mTOR (Homo sapiens) (UniProt P42345); assay: Inhibition of mTOR phosphorylation at S2448 residue in human HepG2 cells assessed as ratio of phosphorylated mTOR to total mTOR level at 0.05 uM after 4 hrs by Western blot analysis (reference value: 1); format: cell-based
[14] = target: Serine/threonine-protein kinase mTOR (Homo sapiens) (UniProt P42345); assay: Inhibition of mTOR phosphorylation at S2448 residue in human HepG2 cells assessed as ratio of phosphorylated mTOR to total mTOR level at 0.25 uM after 4 hrs by Western blot analysis (reference value: 1); format: cell-based
[15] = target: Serine/threonine-protein kinase mTOR (Homo sapiens) (UniProt P42345); assay: Inhibition of mTOR phosphorylation at S2448 residue in human HepG2 cells assessed as ratio of phosphorylated mTOR to total mTOR level at 0.5 uM after 4 hrs by Western blot analysis (reference value: 1); format: cell-based
[16] = target: Serine/threonine-protein kinase mTOR (Homo sapiens) (UniProt P42345); assay: Inhibition of mTOR phosphorylation at S2448 residue in human HepG2 cells assessed as ratio of phosphorylated mTOR to total mTOR level at 1 uM after 4 hrs by Western blot analysis (reference value: 1); format: cell-based
[17] = target: Serine/threonine-protein kinase mTOR (Homo sapiens) (UniProt P42345); assay: Inhibition of mTOR phosphorylation at S2448 residue in human HepG2 cells assessed as ratio of phosphorylated mTOR to total ERK level at 0.05 uM after 4 hrs by Western blot analysis (reference value: 1); format: cell-based
[18] = target: Serine/threonine-protein kinase mTOR (Homo sapiens) (UniProt P42345); assay: Inhibition of mTOR phosphorylation at S2448 residue in human HepG2 cells assessed as ratio of phosphorylated mTOR to total ERK level at 0.5 uM after 4 hrs by Western blot analysis (reference value: 1); format: cell-based
[19] = target: Serine/threonine-protein kinase mTOR (Homo sapiens) (UniProt P42345); assay: Inhibition of mTOR phosphorylation at S2448 residue in human HepG2 cells assessed as ratio of phosphorylated mTOR to total ERK level at 1 uM after 4 hrs by Western blot analysis (reference value: 1); format: cell-based
[20] = target: RAC-alpha serine/threonine-protein kinase (Homo sapiens) (UniProt P31749); assay: Inhibition of AKT phosphorylation at S473 residue in human HepG2 cells assessed as ratio of phosphorylated Akt to total Akt level at 0.5 uM after 4 hrs by Western blot analysis (reference value: 1); format: cell-based
[21] = tested on: HepG2; assay: Activation of AMPKalpha in human HepG2 cells assessed as ratio of phosphorylated AMPKalpha at T172 residue to total ERK level at 0.5 uM incubated for 4 hrs by Western blot analysis (reference value: 1); format: cell-based
[22] = tested on: HepG2; assay: Induction of autophagy in human HepG2 cells assessed as ratio of LC3-2 level to total Erk1/2 protein level at 0.5 uM after 4 hrs in presence of CC and CQ by Western blot analysis (reference value: 2.4); format: functional
[23] = tested on: HepG2; assay: Activation of AMPKalpha in human HepG2 cells assessed as ratio of phosphorylated AMPKalpha at T172 residue to total ERK level at 0.5 uM incubated for 4 hrs in presence of CC by Western blot analysis relative to CC; format: cell-based
[24] = tested on: HepG2; assay: Activation of AMPKalpha in human HepG2 cells assessed as ratio of phosphorylated ACCalpha at S79 residue to total ERK level at 0.5 uM incubated for 4 hrs in presence of CC by Western blot analysis relative to CC; format: cell-based
[25] = tested on: HepG2; assay: Induction of autophagy in human HepG2 cells assessed as ratio of PFKFB3 expression to total ERK level after 2 hrs by Western blot analysis (reference value: 1); format: functional
[26] = tested on: HepG2; assay: Induction of autophagy in human HepG2 cells assessed as ratio of HK2 expression to total ERK level after 2 hrs by Western blot analysis (reference value: 1); format: functional
[27] = tested on: HepG2; assay: Induction of autophagy in human HepG2 cells ratio of LC3-2 level to total ERK level at 0.5 uM after 2 hrs in presence of 2-DG and CQ by Western blot analysis relative to 2-DG; format: functional
[28] = tested on: HepG2; assay: Induction of autophagy in human HepG2 cells assessed as ratio of LC3-2 level to total ERK level at 0.5 uM after 2 hrs in presence of PFK15 by Western blot analysis (reference value: 1.1); format: functional
[29] = tested on: HepG2; assay: Induction of autophagy in human HepG2 cells assessed as ratio of LC3-2 level to total ERK level at 0.5 uM after 2 hrs in presence of PFK15 and CQ by Western blot analysis relative to PFK15; format: functional
[30] = tested on: HepG2; assay: Induction of autophagy in human HepG2 cells assessed as ratio of LC3-2 level to total ERK level at 0.5 uM after 2 hrs in presence of PFKFB3 siRNA by Western blot analysis (reference value: 0.8); format: functional
[31] = tested on: HepG2; assay: Induction of autophagy in human HepG2 cells assessed as ratio of LC3-2 level to total ERK level at 0.5 uM after 2 hrs in presence of HK2 siRNA by Western blot analysis (reference value: 3.1); format: functional
[32] = tested on: HepG2; assay: Induction of autophagy in human HepG2 cells assessed as ratio of LC3-2 level to total ERK level at 0.5 uM after 2 hrs in presence of HK2 siRNA and CQ by Western blot analysis relative to HK2 siRNA; format: functional

Chain of RAC-alpha serine/threonine-protein kinase (Homo sapiens) (P31749 whole entry): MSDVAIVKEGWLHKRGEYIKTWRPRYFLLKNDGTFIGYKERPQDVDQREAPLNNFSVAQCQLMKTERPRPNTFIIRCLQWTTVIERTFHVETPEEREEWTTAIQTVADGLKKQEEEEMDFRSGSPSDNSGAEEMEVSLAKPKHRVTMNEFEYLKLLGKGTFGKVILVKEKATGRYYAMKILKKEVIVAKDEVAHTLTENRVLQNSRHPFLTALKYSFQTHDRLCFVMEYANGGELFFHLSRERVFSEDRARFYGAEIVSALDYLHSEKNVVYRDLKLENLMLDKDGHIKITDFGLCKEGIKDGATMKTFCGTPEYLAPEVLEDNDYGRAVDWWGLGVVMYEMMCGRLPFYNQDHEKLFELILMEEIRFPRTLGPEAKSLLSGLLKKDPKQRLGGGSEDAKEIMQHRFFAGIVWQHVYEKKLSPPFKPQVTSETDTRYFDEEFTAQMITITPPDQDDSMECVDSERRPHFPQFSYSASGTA

| SMILES | Activity [1] | Activity [2] | Activity [3] | Activity [4] | Activity [5] | Activity [6] | Activity [7] | Ratio [8] | fold change (FC) [9] | Ratio [10] | Ratio [11] | fold change (FC) [12] | Ratio [13] | Ratio [14] | Ratio [15] | Ratio [16] | Ratio [17] | Ratio [18] | Ratio [19] | Ratio [20] | also measured |
| --- | --- | --- | --- | --- | --- | --- | --- | --- | --- | --- | --- | --- | --- | --- | --- | --- | --- | --- | --- | --- | --- |
| CC[C@@]12SS[C@]3(C(=O)N1C)[C@@H](O)C1(C45c6ccccc6N[C@@H]4N4C(=O)[C@]6([C@@H](C)O)SS[C@]4(C(=O)N6C)[C@H]5O)c4ccccc4N[C@@H]1N3C2=O (some centres undefined) | Active | Active | Active | Active | Active | Active | inactive | 1.2 | 2.3 | 1.3 | 4.2 | 3.2 | 1.4 | 1.4 | 1.8 | 1.8 | 1 | 1 | 1 | 1.4 | Ratio [21]: 1.2; Ratio [22]: 0.9; fold change (FC) [23]: 0.8; fold change (FC) [24]: 0.7; Ratio [25]: 0.7; Ratio [26]: 0.8; fold change (FC) [27]: 3.7; Ratio [28]: 1.3; fold change (FC) [29]: 3.4; Ratio [30]: 0.9; Ratio [31]: 1.6; fold change (FC) [32]: 2.8 |
| CCC1(SC)C(=O)N2[C@H]3N(C)c4ccccc4C3(C34c5ccccc5N(C)[C@@H]3N3C(=O)C(SC)([C@@H](C)O)N(C)C(=O)C3(SC)[C@H]4O)[C@H](O)C2(SC)C(=O)N1C (some centres undefined) | Active | Active | Active | Active | Active | Active | inactive | 1.1 | 2.8 | 1.2 | 4.4 | 3.6 | 1.8 | 2.2 | 2.2 | 2.2 | 1 | 1 | 0.9 | 1.4 | Ratio [21]: 1.4; Ratio [22]: 0.9; fold change (FC) [23]: 0.6; fold change (FC) [24]: 0.7; Ratio [25]: 0.6; Ratio [26]: 0.6; fold change (FC) [27]: 3.7; Ratio [28]: 1.6; fold change (FC) [29]: 2.4; Ratio [30]: 1; Ratio [31]: 1.1; fold change (FC) [32]: 6.6 |

Source: ChEMBL document CHEMBL4613241, “Disulfide Cleavage in a Dimeric Epipolythiodioxopiperazine Natural Product Diminishes Its Apoptosis-Inducing Effect but Enhances Autophagy in Tumor Cells” (2020)
